Measurements as given in US12084458B2, “Substituted pyridines, pyridazines, and pyrimidines as TYK2 inhibitors” (Sudo Biosciences Limited, priority 2021, dated 2024).
Like-named read-outs stand apart in the source and are kept apart here.

Tests used:
Assay type in all cases: cell-based
[1] = tested on: HEK-Blue IFNγ reporter cells (IFNγ-stimulated STAT1 SEAP reporter); assay: HEK-Blue IFNγ SEAP reporter assay for determining selectivity; parameters: IFN-γ (SEAP selectivity, IC50): scale not given here; details: 50 ng/mL human recombinant IFNγ; for IC50: read-out: IFN-γ (SEAP selectivity, IC50)
Experimental: (§1) Example B-3: HEK-Blue™ IL-2 and IFNγ Reporter Assays for Determining Selectivity
(§2) HEK-Blue™ IL-2 and IFNγ reporter cells with a stably-integrated cytokine receptor and STAT5 or STAT1 express STAT-inducible secreted embryonic alkaline phosphatase (SEAP) reporter gene upon cytokine stimulation. These cells were plated in DMEM (Gibco) containing 10% heat-inactivated FBS (Gibco) and 100 U/mL PenStrep (Gibco) at 37° C. under 5% CO2 conditions for 20-22 hours. The cells were then pretreated with serially diluted test compounds for 60 min prior to stimulation with either 4 ng/mL human recombinant IL-2 (Miltenyl Biotech) or 50 ng/mL human recombinant IFNγ (InvivoGen) for 24 hours. SEAP induction was measured using the QUANTI-Blue™ Solution (InvivoGen) according to the manufacturer's instructions.

[2] = tested on: HEK-Blue IL-23 cells (IL-23-stimulated STAT3 SEAP reporter; TYK2 JH2); assay: HEK-Blue IL-23 SEAP reporter assay for profiling TYK2 pseudokinase (JH2) inhibition; details: 10 ng/mL human recombinant IL-23, SEAP reporter, read-out: IL23 (TYK2 inhibitory activity, IC50)
Experimental: (§3) Example B-1: HEK-Blue™ IL-23 and IFNα/β Reporter Assays for Profiling TYK2 Pseudokinase (JH2) Inhibition
(§4) HEK-Blue™ IL-23 and IFNα/β cells with a stably-integrated cytokine receptor and STAT3 or STAT1 express STAT-inducible secreted embryonic alkaline phosphatase (SEAP) reporter gene upon cytokine stimulation. These cells are plated in DMEM (Gibco) containing 10% heat-inactivated FBS (Gibco) and 100 U/mL PenStrep (Gibco) at 37° C. under 5% CO2 conditions for 20-22 hours. The cells are then pretreated with serially diluted test compounds for 60 min prior to stimulation with either 10 ng/mL human recombinant IL-23 (Miltenyl Biotech) or 1 ng/mL human recombinant IFNα (InvivoGen) for 22-24 hours for IL-23 or 16-18 h for IFNα. SEAP induction is measured using the QUANTI Blue™ Solution (InvivoGen) according to the manufacturer's instructions.

[3] = tested on: HEK-Blue IL-2 reporter cells (IL-2-stimulated STAT5 SEAP reporter); assay: HEK-Blue IL-2 SEAP reporter assay for determining selectivity; details: 4 ng/mL human recombinant IL-2
Experimental: as §1, §2

[4] = tested on: HEK-Blue IFNα/β cells (IFNα-stimulated STAT1 SEAP reporter; TYK2 JH2); assay: HEK-Blue IFNα/β SEAP reporter assay for profiling TYK2 pseudokinase (JH2) inhibition; details: Homo sapiens, HEK-Blue, 1 ng/mL human recombinant IFNα, read-out: IFNα (TYK2 inhibitory activity, IC50)
Experimental: as §3, §4

In the case of `[2H]C([2H])([2H])NC(=O)c1cnc(NC(=O)C2CC2)cc1Nc1cc(F)cc2c1N(C)[C@@H](C)c1nc(C)nn1-2` (single isomer, unassigned) [Compound 110], the “IFN-γ (SEAP selectivity, IC50)” value [1] is reported as “C/D”, the IC50 [2] is reported as < 30 nM and the IC50 [3] is reported as > 1000 nM. For the same compound, the IC50 [4] was 30 to 300 nM.
For `[2H]C([2H])([2H])NC(=O)c1nnc(NC(=O)C2CC2)cc1Nc1cc(F)cc2c1N(C)[C@@H](C)c1nc(C)nn1-2` (single isomer, unassigned) [Compound 111], the IC50 ([1]; Homo sapiens, HEK-Blue) was > 1000 nM, the IC50 [2] was < 30 nM and the IC50 [3] was > 1000 nM. The IC50 [4] was 30 to 300 nM.
For `[2H]C([2H])([2H])NC(=O)c1nnc(Nc2cc(C)nc(C)n2)cc1Nc1cccc2c1N(C)Cc1nc(C)nn1-2` [Compound 15, 4-((2,5-dimethyl-4,5-dihydro-[1,2,4]triazolo[1,5-a]quinoxalin-6-yl)amino)-6-((2,6-dimethylpyrimidin-4-yl)amino)-N-(methyl-d3)pyridazine-3-carboxamide], the IC50 ([1]; Homo sapiens, HEK-Blue) was < 30 nM, the IC50 [2] was < 30 nM and the IC50 [3] was 300 to 1000 nM. The IC50 [4] was < 30 nM.
In the case of `[2H]C([2H])([2H])NC(=O)c1nnc(NC(=O)NC)cc1Nc1cccc2c1N(C)Cc1nc(C)nn1-2` [Compound 19, 4-((2,5-dimethyl-4,5-dihydro-[1,2,4]triazolo[1,5-a]quinoxalin-6-yl)amino)-N-(methyl-d3)-6-(3-methylureido)pyridazine-3-carboxamide], the IC50 ([1]; Homo sapiens, HEK-Blue) is reported as 300 to 1000 nM, the IC50 [2] is reported as < 30 nM and the IC50 [3] is reported as > 1000 nM. The IC50 [4] was 30 to 300 nM.
With `[2H]C([2H])([2H])NC(=O)c1cnc(Nc2cc(C)nc(C)n2)cc1Nc1cccc2c1N(C)Cc1nc(C)nn1-2` [Compound 26, 4-((2,5-dimethyl-4,5-dihydro-[1,2,4]triazolo[1,5-a]quinoxalin-6-yl)amino)-6-((2,6-dimethylpyrimidin-4-yl)amino)-N-(methyl-d3)nicotinamide] the IC50 ([1]; Homo sapiens, HEK-Blue) was 30 to 300 nM, the IC50 [2] was < 30 nM and the IC50 [3] was 300 to 1000 nM. For the same compound, the IC50 [4] was < 30 nM.
In the case of `[2H]C([2H])([2H])NC(=O)c1nnc(NC(=O)C2CC2)cc1Nc1cccc2c1N(C)C([2H])([2H])c1nc(C)nn1-2` [Compound 35, 6-(cyclopropanecarboxamido)-4-((2,5-dimethyl-4,5-dihydro-[1,2,4]triazolo[1,5-a]quinoxalin-6-yl-4,4-d2)amino)-N-(methyl-d3)pyridazine-3-carboxamide], the IC50 ([1]; Homo sapiens, HEK-Blue) is reported as 30 to 300 nM, the IC50 [2] is reported as < 30 nM and the IC50 [3] is reported as > 1000 nM. For the same compound, the IC50 [4] was < 30 nM.
For `[2H]C([2H])([2H])NC(=O)c1cnc(NC(=O)C2CC2)cc1Nc1cccc2c1N(C)C([2H])([2H])c1nc(C)nn1-2` [Compound 36, 6-(cyclopropanecarboxamido)-4-((2,5-dimethyl-4,5-dihydro-[1,2,4]triazolo[1,5-a]quinoxalin-6-yl-4,4-d2)amino)-N-(methyl-d3)nicotinamide], the IC50 ([1]; Homo sapiens, HEK-Blue) was 300 to 1000 nM, the IC50 [2] was < 30 nM and the IC50 [3] was > 1000 nM. For the same compound, the IC50 [4] was < 30 nM.
In the case of `[2H]C([2H])([2H])NC(=O)c1nnc(NC(=O)C2CC2)cc1Nc1cccc2c1N(C)C1(CC1)c1nc(C)nn1-2` [Compound 39, 6-(cyclopropanecarboxamido)-4-((2′,5′-dimethyl-5′H-spiro[cyclopropane-1,4′-[1,2,4]triazolo[1,5-a]quinoxalin]-6′-yl)amino)-N-(methyl-d3)pyridazine-3-carboxamide], the IC50 ([1]; Homo sapiens, HEK-Blue) is reported as 300 to 1000 nM, the IC50 [2] is reported as < 30 nM and the IC50 [3] is reported as > 1000 nM. The IC50 [4] was < 30 nM.
In the case of `[2H]C([2H])([2H])NC(=O)c1cnc(NC(=O)C2CC2)cc1Nc1cccc2c1N(C)C1(CC1)c1nc(C)nn1-2` [Compound 40, 6-(cyclopropanecarboxamido)-4-((2′,5′-dimethyl-5′H-spiro[cyclopropane-1,4′-[1,2,4]triazolo[1,5-a]quinoxalin]-6′-yl)amino)-N-(methyl-d3)nicotinamide], the IC50 ([1]; Homo sapiens, HEK-Blue) is reported as > 1000 nM, the IC50 [2] is reported as < 30 nM and the IC50 [3] is reported as > 1000 nM. The IC50 [4] was < 30 nM.
For `[2H]C([2H])([2H])NC(=O)c1nnc(NC(=O)C2CC2)cc1Nc1cccc2c1N(C)[C@H](C([2H])([2H])[2H])c1nc(C)nn1-2` [Compound 44, (R)-6-(cyclopropanecarboxamido)-4-((2,5-dimethyl-4-(methyl-d3)-4,5-dihydro-[1,2,4]triazolo[1,5-a]quinoxalin-6-yl)amino)-N-(methyl-d3)pyridazine-3-carboxamide], the IC50 ([1]; Homo sapiens, HEK-Blue) was > 1000 nM, the IC50 [2] was < 30 nM and the IC50 [3] was > 1000 nM. The IC50 [4] was < 30 nM.
For `[2H]C([2H])([2H])NC(=O)c1cnc(NC(=O)C2CC2)cc1Nc1cccc2c1N(C)Cc1nn(C([2H])([2H])[2H])nc1-2` [Compound 49, 6-(cyclopropanecarboxamido)-N-(methyl-d3)-4-((5-methyl-2-(methyl-d3)-4,5-dihydro-2H-[1,2,3]triazolo[4,5-c]quinolin-6-yl)amino)nicotinamide], the IC50 ([1]; Homo sapiens, HEK-Blue) was 30 to 300 nM, the IC50 [2] was < 30 nM and the IC50 [3] was > 1000 nM. For the same compound, the IC50 [4] was < 30 nM.
In the case of `[2H]C([2H])([2H])NC(=O)c1cnc(NC(=O)NC)cc1Nc1cccc2c1N(C)Cc1nn(C)nc1-2` [Compound 50, 4-((2,5-dimethyl-4,5-dihydro-2H-[1,2,3]triazolo[4,5-c]quinolin-6-yl)amino)-N-(methyl-d3)-6-(3-methylureido)nicotinamide], the IC50 ([1]; Homo sapiens, HEK-Blue) is reported as > 1000 nM, the IC50 [2] is reported as < 30 nM and the IC50 [3] is reported as > 1000 nM. For the same compound, the IC50 [4] was < 30 nM.
With `[2H]C([2H])([2H])NC(=O)c1nnc(NC(=O)C2CC2)cc1Nc1cccc2c1N(C)C([2H])([2H])c1nn(C)nc1-2` [Compound 53, 6-(cyclopropanecarboxamido)-4-((2,5-dimethyl-4,5-dihydro-2H-[1,2,3]triazolo[4,5-c]quinolin-6-yl-4,4-d2)amino)-N-(methyl-d3)pyridazine-3-carboxamide] the IC50 ([1]; Homo sapiens, HEK-Blue) was 30 to 300 nM, the IC50 [2] was < 30 nM and the IC50 [3] was 300 to 1000 nM. For the same compound, the IC50 [4] was < 30 nM.
With `[2H]C([2H])([2H])NC(=O)c1nnc(NC(=O)NC)cc1Nc1cccc2c1N(C)C([2H])([2H])c1nn(C)nc1-2` [Compound 54, 4-((2,5-dimethyl-4,5-dihydro-2H-[1,2,3]triazolo[4,5-c]quinolin-6-yl-4,4-d2)amino)-N-(methyl-d3)-6-(3-methylureido)pyridazine-3-carboxamide] the IC50 ([1]; Homo sapiens, HEK-Blue) was 300 to 1000 nM, the IC50 [2] was < 30 nM and the IC50 [3] was > 1000 nM. For the same compound, the IC50 [4] was < 30 nM.
For `[2H]C([2H])([2H])NC(=O)c1cnc(NC(=O)NC)cc1Nc1cccc2c1N(C)C([2H])([2H])c1nn(C)nc1-2` [Compound 63, 4-((2,5-dimethyl-4,5-dihydro-2H-[1,2,3]triazolo[4,5-c]quinolin-6-yl-4,4-d2)amino)-N-(methyl-d3)-6-(3-methylureido)nicotinamide], the IC50 ([1]; Homo sapiens, HEK-Blue) was > 1000 nM, the IC50 [2] was < 30 nM and the IC50 [3] was > 1000 nM. The IC50 [4] was < 30 nM.
With `[2H]C([2H])([2H])NC(=O)c1cnc(NC(=O)NC2CCC2)cc1Nc1cccc2c1N(C)Cc1nn(C)nc1-2` [Compound 64, 6-(3-cyclobutylureido)-4-((2,5-dimethyl-4,5-dihydro-2H-[1,2,3]triazolo[4,5-c]quinolin-6-yl)amino)-N-(methyl-d3)nicotinamide] the IC50 ([1]; Homo sapiens, HEK-Blue) was > 1000 nM, the IC50 [2] was < 30 nM and the IC50 [3] was > 1000 nM. The IC50 [4] was 30 to 300 nM.
With `[2H]C([2H])([2H])NC(=O)c1cnc(NC(=O)NC2CC2)cc1Nc1cccc2c1N(C)Cc1nn(C)nc1-2` [Compound 66, 6-(3-cyclopropylureido)-4-((2,5-dimethyl-4,5-dihydro-2H-[1,2,3]triazolo[4,5-c]quinolin-6-yl)amino)-N-(methyl-d3)nicotinamide] the IC50 ([1]; Homo sapiens, HEK-Blue) was > 1000 nM, the IC50 [2] was < 30 nM and the IC50 [3] was > 1000 nM. The IC50 [4] was 30 to 300 nM.
`[2H]C([2H])([2H])NC(=O)c1nnc(NC(=O)[C@@H]2CC2(F)F)cc1Nc1nccc2c1N(C)Cc1nn(C)nc1-2` [Compound 68, (S)-6-(2,2-difluorocyclopropane-1-carboxamido)-4-((2,5-dimethyl-4,5-dihydro-2H-[1,2,3]triazolo[4,5-c][1,7]naphthyridin-6-yl)amino)-N-(methyl-d3)pyridazine-3-carboxamide] was tested, and the IC50 ([1]; Homo sapiens, HEK-Blue) was 300 to 1000 nM, the IC50 [2] was < 30 nM and the IC50 [3] was > 1000 nM. The IC50 [4] was < 30 nM.
For `[2H]C([2H])([2H])NC(=O)c1nnc(NC(=O)[C@H]2CC2(F)F)cc1Nc1nccc2c1N(C)Cc1nn(C)nc1-2` [Compound 69, (R)-6-(2,2-difluorocyclopropane-1-carboxamido)-4-((2,5-dimethyl-4,5-dihydro-2H-[1,2,3]triazolo[4,5-c][1,7]naphthyridin-6-yl)amino)-N-(methyl-d3)pyridazine-3-carboxamide], the IC50 [1] was > 1000 nM, the IC50 [2] was < 30 nM and the IC50 [3] was > 1000 nM. For the same compound, the IC50 [4] was 30 to 300 nM.
